Experimental data taken from ChEMBL document CHEMBL1126546, “Vitamin D analogues: new regulators of cancer cell growth and differentiation” (Bioorg Med Chem Lett, 1993).

What was measured:
U-937 [1] = test: Concentration required for the compound to induce U 937 cells along the monocyte-macrophage pathway; format: functional, cell-based; conditions: Homo sapiens
U-937 [2] = test: Compound was tested in vitro to inhibit proliferation of U 937 human histiolytic lymphoma cells; format: functional, cell-based
Rattus norvegicus = test: Compound was tested for in vivo antitumor effect on rats with mammary tumors induced by nitrosomethylurea at a dose of 2.5 ug/kg/day; format: functional

IC50 (U-937 [2]) [nM]	SMILES	Concentration (U-937 [1]) [nM]	inhibition in vivo at 0.0025 mg/kg/day (Rattus norvegicus) [%]
–	C=C1/C(=C\C=C2/CCC[C@]3(C)[C@@H]([C@H](C)CCCC(C)(C)O)CC[C@@H]23)C[C@@H](O)C[C@@H]1O	2	–
0.25	C=C1/C(=C\C=C2/CCC[C@]3(C)[C@@H]([C@H](C)/C=C/C=C/C(O)(CC)CC)CC[C@@H]23)C[C@@H](O)C[C@@H]1O [SEOCALCITOL]	0.03	80
